Experimental data from PubChem BioAssay AID248 (DTP/NCI, 2004).
Where “and” joins values, the source holds several entries; their conditions need not be identical. Identical values can stand only once. Inconclusive results and toxic doses are left out.

Test system: L1210 leukemia ip in BDF1 mice, survival T/C
Experiment: NCI In Vivo Anticancer Drug Screen. Data for tumor model L1210 Leukemia (intraperitoneal) in B6D2F1 (BDF1) mice
Conditions: endpoint: mean survival time, higher = longer survival
Procedure, shortened: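 Ratio derived from survival: compound-dosed mice over vehicle-dosed mice, all bearing a transplantable tumor.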

[1] = dose: 100.0 mg/kg/injection, schedule: Q04DX003 (ip), vehicle: saline with Tween-80
[2] = dose: 200.0 mg/kg/injection, schedule: Q04DX003 (ip), vehicle: saline with Tween-80
[3] = dose: 400.0 mg/kg/injection, schedule: Q04DX003 (ip), vehicle: saline with Tween-80

Question: Which results are given for O=C(O)C1CCC(CC2CCC2)CC1 (stereo not drawn)?
Answer: T/C (dose: 100.0 mg/kg/injection, schedule: Q01DX001 (ip), vehicle: Klucel (hydroxypropylcellulose) (HPC)): 95 % of control; T/C (dose: 100.0 mg/kg/injection, schedule: Q04DX003 (ip), vehicle: Klucel (hydroxypropylcellulose) (HPC)): 98 % of control; T/C (dose: 200.0 mg/kg/injection, schedule: Q01DX001 (ip), vehicle: Klucel (hydroxypropylcellulose) (HPC)): 100 % of control; T/C (dose: 200.0 mg/kg/injection, schedule: Q04DX003 (ip), vehicle: Klucel (hydroxypropylcellulose) (HPC)): 98 % of control; T/C (dose: 400.0 mg/kg/injection, schedule: Q01DX001 (ip), vehicle: Klucel (hydroxypropylcellulose) (HPC)): 92 % of control; T/C (dose: 400.0 mg/kg/injection, schedule: Q04DX003 (ip), vehicle: Klucel (hydroxypropylcellulose) (HPC)): 95 % of control

Question: CCN(CC)CC(=O)Nc1cccc2c1C(=O)c1c(c(O)c3ccccc3c1O)C2=O was tested. Which T/C (dose: 50.0 mg/kg/injection, schedule: Q01DX009 (ip), vehicle: saline with Tween-80) did it give?
Answer: 94 % of control

Question: And the T/C (dose: 100.0 mg/kg/injection, schedule: Q01DX009 (ip), vehicle: saline with Tween-80)?
Answer: 103 % of control

Question: And the T/C [1]?
Answer: 101 % of control

Question: And the T/C (dose: 200.0 mg/kg/injection, schedule: Q01DX009 (ip), vehicle: saline with Tween-80)?
Answer: 98 % of control

Question: What about the T/C [2] of the same compound?
Answer: 155 % of control

Question: And the T/C [3]?
Answer: 102 % of control

Question: With C=CCSc1nc2c(=O)[nH]cnc2n1C1OC(CO)C(O)C1O (stereo not drawn) as the compound, how does the T/C (dose: 100.0 mg/kg/injection, schedule: Q01DX005 (ip), vehicle: saline) read?
Answer: 98 % of control

Question: And the T/C (dose: 200.0 mg/kg/injection, schedule: Q01DX005 (ip), vehicle: saline)?
Answer: 101 % of control

Question: With O=C(O)/C=C/c1ccc(C(NC(=O)N2C(=O)C=CC2=O)NC(=O)N2C(=O)C=CC2=O)cc1 as the compound, how does the T/C (dose: 100.0 mg/kg/injection, schedule: Q01DX001 (ip), vehicle: carboxymethylcellulose (CMC)) read?
Answer: 100 % of control

Question: And the T/C (dose: 200.0 mg/kg/injection, schedule: Q01DX001 (ip), vehicle: carboxymethylcellulose (CMC))?
Answer: 95 % of control

Question: What about the T/C (dose: 400.0 mg/kg/injection, schedule: Q01DX001 (ip), vehicle: carboxymethylcellulose (CMC)) of the same compound?
Answer: 97 % of control

Question: How did the T/C (dose: 100.0 mg/kg/injection, schedule: Q01DX009 (ip), vehicle: saline) turn out when CC(O)C(C)(C)CO (stereo not drawn) was run?
Answer: 94 % of control

Question: What about the T/C (dose: 200.0 mg/kg/injection, schedule: Q01DX009 (ip), vehicle: saline) of the same compound?
Answer: 95 % of control

Question: And the T/C (dose: 400.0 mg/kg/injection, schedule: Q01DX009 (ip), vehicle: saline)?
Answer: 90 % of control

Question: Which results are given for CCCCCCCC(=O)Nc1ccccc1CC?
Answer: T/C [1]: 93 % of control; T/C [2]: 95 % of control; T/C [3]: 86 % of control

Question: What does the source list for CC1(C)CCc2cc(C(=O)O)ccc2O1?
Answer: T/C (dose: 50.0 mg/kg/injection, schedule: Q01DX001 (ip), vehicle: saline): 100 % of control; T/C (dose: 100.0 mg/kg/injection, schedule: Q01DX001 (ip), vehicle: saline): 100 % of control; T/C (dose: 200.0 mg/kg/injection, schedule: Q01DX001 (ip), vehicle: saline): 103 % of control; T/C (dose: 400.0 mg/kg/injection, schedule: Q01DX001 (ip), vehicle: saline): 100 % of control

Question: COc1cccc2c1C(=O)c1c(O)c3c(c(O)c1C2=O)CC(O)(C(C)=O)CC3OC1CC(NC(=S)Nc2ccccc2)C(O)C(C)O1 (stereo not drawn) was tested. Which T/C (dose: 2.0 mg/kg/injection, schedule: Q04DX003 (ip), vehicle: water) did it give?
Answer: 105 % of control

Question: What about the T/C (dose: 3.12 mg/kg/injection, schedule: Q01DX009 (ip), vehicle: saline with Tween-80) of the same compound?
Answer: 117 % of control

Question: And the T/C (dose: 4.0 mg/kg/injection, schedule: Q04DX003 (ip), vehicle: water)?
Answer: 111 % of control

Question: What about the T/C (dose: 6.25 mg/kg/injection, schedule: Q01DX009 (ip), vehicle: saline with Tween-80) of the same compound?
Answer: 122 % of control

Question: What about the T/C (dose: 8.0 mg/kg/injection, schedule: Q04DX003 (ip), vehicle: water) of the same compound?
Answer: 106 % of control

Question: What about the T/C (dose: 12.5 mg/kg/injection, schedule: Q01DX009 (ip), vehicle: saline with Tween-80) of the same compound?
Answer: 123 % of control

Question: What about the T/C (dose: 16.0 mg/kg/injection, schedule: Q04DX003 (ip), vehicle: water) of the same compound?
Answer: 120 % of control and 123 % of control

Question: What about the T/C (dose: 32.0 mg/kg/injection, schedule: Q04DX003 (ip), vehicle: water) of the same compound?
Answer: 123 % of control

Question: What about the T/C (dose: 64.0 mg/kg/injection, schedule: Q04DX003 (ip), vehicle: water) of the same compound?
Answer: 118 % of control

Question: What about the T/C (dose: 125.0 micrograms/kg/injection, schedule: Q04DX003 (ip), vehicle: water) of the same compound?
Answer: 98 % of control

Question: And the T/C (dose: 250.0 micrograms/kg/injection, schedule: Q04DX003 (ip), vehicle: water)?
Answer: 103 % of control

Question: What about the T/C (dose: 500.0 micrograms/kg/injection, schedule: Q04DX003 (ip), vehicle: water) of the same compound?
Answer: 107 % of control

Question: And the T/C (dose: 1000.0 micrograms/kg/injection, schedule: Q04DX003 (ip), vehicle: water)?
Answer: 102 % of control

Question: What about the T/C (dose: 2000.0 micrograms/kg/injection, schedule: Q04DX003 (ip), vehicle: water) of the same compound?
Answer: 104 % of control

Question: CN(C)C1C(CO)C(CO)C1(C)C (stereo not drawn) was tested. Which T/C (dose: 100.0 mg/kg/injection, schedule: Q01DX001 (ip), vehicle: saline with Tween-80) did it give?
Answer: 102 % of control

Question: What about the T/C (dose: 200.0 mg/kg/injection, schedule: Q01DX001 (ip), vehicle: saline with Tween-80) of the same compound?
Answer: 97 % of control

Question: What does the source list for CCOP(=O)(OCC)C(=O)C1C(C=C(C)C)C1(C)C (stereo not drawn)?
Answer: T/C (dose: 100.0 mg/kg/injection, schedule: Q04DX002 (ip), vehicle: saline): 123 % of control; T/C (dose: 200.0 mg/kg/injection, schedule: Q04DX002 (ip), vehicle: saline): 104 % of control; T/C (dose: 400.0 mg/kg/injection, schedule: Q04DX002 (ip), vehicle: saline): 115 % of control

Question: COc1ccccc1OCCN1Cc2ccccc2C1 was tested. Which T/C [1] did it give?
Answer: 96 % of control

Question: What about the T/C [2] of the same compound?
Answer: 92 % of control
